Data as given in patent US4795743A, “2'-deamino-2'-hydroxyistamycin Bo derivatives of low toxicity” (Zaidan Hojin Biseibutsu Kagaku Kenkyu Kai, priority 1986, dated 1989).
In brackets after ≈: the same amount, converted by molar mass. Like-named read-outs stand apart in the source and are kept apart here.

Legend:
[1] = tested on: Pseudomonas aeruguinosa PST1; assay: Antibacterial spectrum, standard serial dilution method; type: cell-based, Pseudomonas aeruginosa; details: Muller-Hinton medium, 37° C., 18 hours, read-out: Minimum Growth Inhibitory Concentration
[2] = tested on: Escherichia coli JR66/W677; assay: as above; type: cell-based; details: read-out: Minimum Growth Inhibitory Concentration
[3] = tested on: Shibella flexneri 4b JS11811; assay: as above; type: cell-based; details: 18 h, read-out: Minimum Growth Inhibitory Concentration
[4] = tested on: Serratia sp. 4; assay: as above; type: cell-based; details: Muller-Hinton medium, 37° C., 18 hours, read-out: Minimum Growth Inhibitory Concentration
[5] = tested on: Escherichia coli NIHJ; assay: as above; type: cell-based; details: read-out: Minimum Growth Inhibitory Concentration
[6] = tested on: Escherichia coli K-12 ML1410 R81; assay: as above; type: cell-based; details: K12ML1410R81, 18 h, read-out: Minimum Growth Inhibitory Concentration
[7] = tested on: Escherichia coli K-12 LA290 R56; assay: as above; type: cell-based; details: K12LA290R56, 18 h, read-out: Minimum Growth Inhibitory Concentration
[8] = tested on: Pseudomonas aeruguinosa A3; assay: as above; type: cell-based, Pseudomonas aeruginosa; details: read-out: Minimum Growth Inhibitory Concentration
[9] = tested on: Shigella dysernteriae JS11910; assay: as above; type: cell-based; details: Muller-Hinton medium, 37° C., 18 hours, read-out: Minimum Growth Inhibitory Concentration
[10] = tested on: Staphylococcus aureus 209P; assay: Antibacterial spectrum, standard serial dilution method of Japan Society of Chemotherapy; type: cell-based; details: read-out: Minimum Growth Inhibitory Concentration
[11] = tested on: Proteus vulgaris OX19; assay: Antibacterial spectrum, standard serial dilution method; type: cell-based; details: read-out: Minimum Growth Inhibitory Concentration
[12] = tested on: Pseudomonas aeruguinosa H11; assay: as above; type: cell-based, Pseudomonas aeruginosa; details: Muller-Hinton medium, 37° C., 18 hours, read-out: Minimum Growth Inhibitory Concentration
[13] = tested on: Escherichia coli W677; assay: as above; type: cell-based; details: read-out: Minimum Growth Inhibitory Concentration
[14] = tested on: Pseudomonas aeruguinosa TI-13; assay: as above; type: cell-based, Pseudomonas aeruginosa; details: TI13; Pseudomonas aeruguinosa TI-13; Muller-Hinton medium, 37° C., 18 hours; read-out: Minimum Growth Inhibitory Concentration
[15] = tested on: Sarcina lutea PCI 1001; assay: as above; type: cell-based; details: Micrococcus luteus, read-out: Minimum Growth Inhibitory Concentration
[16] = tested on: Bacillus cereus ATCC 1-702; assay: as above; type: cell-based; details: ATCC1; Bacillus cereus ATCC 1-702; Muller-Hinton medium, 37° C., 18 hours; read-out: Minimum Growth Inhibitory Concentration
[17] = tested on: Escherichia coli K-12 C600 R135; assay: as above; type: cell-based; details: K12C600R135, E. coli K-12 C600 R135, Muller-Hinton medium, 37° C., 18 hours, read-out: Minimum Growth Inhibitory Concentration
[18] = tested on: Escherichia coli K-12 J5 R11-2; assay: as above; type: cell-based; details: K12J5R112, 18 h, read-out: Minimum Growth Inhibitory Concentration
[19] = tested on: Shigella sonnei; assay: as above; type: cell-based; details: Muller-Hinton medium, 37° C., 18 hours, read-out: Minimum Growth Inhibitory Concentration
[20] = tested on: Escherichia coli JR225; assay: as above; type: cell-based; details: JR225, 18 h, read-out: Minimum Growth Inhibitory Concentration
[21] = tested on: Providencia sp. Pv16; assay: as above; type: cell-based; details: read-out: Minimum Growth Inhibitory Concentration
[22] = tested on: mice; assay: Acute toxicity by intravenous injection in mice; details: mice, intravenous injection, 200 mg/kg
[23] = tested on: Salmonella enteritidis 1891; assay: Antibacterial spectrum, standard serial dilution method; type: cell-based; details: Salmonella enterica, Muller-Hinton medium, 37° C., 18 hours, read-out: Minimum Growth Inhibitory Concentration
[24] = tested on: Staphylococcus aureus Ap 01; assay: as above; type: cell-based; details: read-out: Minimum Growth Inhibitory Concentration
[25] = tested on: Bacillus subtilis PCI 219; assay: as above; type: cell-based; details: read-out: Minimum Growth Inhibitory Concentration
[26] = tested on: Proteus rettgeri GN466; assay: as above; type: cell-based; details: Providencia rettgeri; Proteus rettgeri GN466; Muller-Hinton medium, 37° C., 18 hours; read-out: Minimum Growth Inhibitory Concentration
[27] = tested on: Staphylococcus aureus Smith; assay: as above; type: cell-based; details: read-out: Minimum Growth Inhibitory Concentration
[28] = tested on: Bacillus anthracis; assay: microbe, parasite or virus in culture; type: cell-based; details: 18 h, read-out: Minimum Growth Inhibitory Concentration
[29] = tested on: Escherichia coli K-12 LA290 R55; assay: Antibacterial spectrum, standard serial dilution method; type: cell-based; details: K12LA290R55, 18 h, read-out: Minimum Growth Inhibitory Concentration
[30] = tested on: Serratia sp. SOU; assay: as above; type: cell-based; details: read-out: Minimum Growth Inhibitory Concentration
[31] = tested on: Escherichia coli K-12 ML1629; assay: as above; type: cell-based; details: K12ML1629, E. coli K-12 ML1629, Muller-Hinton medium, 37° C., 18 hours, read-out: Minimum Growth Inhibitory Concentration
[32] = tested on: Pseudomonas aeruguinosa GN315; assay: as above; type: cell-based, Pseudomonas aeruginosa; details: Pseudomonas aeruguinosa GN315; Muller-Hinton medium, 37° C., 18 hours; read-out: Minimum Growth Inhibitory Concentration
[33] = tested on: Escherichia coli K-12 R388; assay: as above; type: cell-based; details: K12R388, 18 h, read-out: Minimum Growth Inhibitory Concentration
[34] = tested on: Mycobacterium smegmatis ATCC 607; assay: as above; type: cell-based; details: Mycolicibacterium smegmatis, ATCC607; Mycobacterium smegmatis ATCC 607; Muller-Hinton medium, 37° C., 18 hours; read-out: Minimum Growth Inhibitory Concentration

SMILES	MIC [1] [µg/mL]	MIC [3] [µg/mL]	MIC [4] [µg/mL]	MIC [6] [µg/mL]	MIC [7] [µg/mL]	MIC [9] [µg/mL]	MIC [12] [µg/mL]	MIC [14] [µg/mL]	MIC [16] [µg/mL]	MIC [17] [µg/mL]	MIC [18] [µg/mL]	MIC [19] [µg/mL]	MIC [20] [µg/mL]	MIC [23] [µg/mL]	MIC [26] [µg/mL]	MIC [28] [µg/mL]	MIC [29] [µg/mL]	MIC [31] [µg/mL]	MIC [32] [µg/mL]	MIC [33] [µg/mL]	also measured
CNCC1CCC(O)C(OC2C(N)CC(OC)C(N(C)C(=O)CCN)C2O)O1 (stereo not drawn) [Compound No. 3, 4-N-(β-Alanyl)-2'-deamino-2'-hydroxyistamycin Bo]	100 (≈ 247 µM)	6.25 (≈ 15.5 µM)	100 (≈ 247 µM)	25 (≈ 61.8 µM)	3.13 (≈ 7.74 µM)	3.13 (≈ 7.74 µM)	100 (≈ 247 µM)	100 (≈ 247 µM)	25 (≈ 61.8 µM)	3.13 (≈ 7.74 µM)	3.13 (≈ 7.74 µM)	6.25 (≈ 15.5 µM)	3.13 (≈ 7.74 µM)	6.25 (≈ 15.5 µM)	0.78 (≈ 1.93 µM)	3.13 (≈ 7.74 µM)	12.5 (≈ 30.9 µM)	6.25 (≈ 15.5 µM)	50 (≈ 124 µM)	3.13 (≈ 7.74 µM)	MIC ([2]; JR66/W677, 18 h): 6.25 µg/mL (≈ 15.5 µM); MIC ([5]; 18 h): 1.56 µg/mL (≈ 3.86 µM); MIC ([8]; Pseudomonas, A3, 18 h): 3.13 µg/mL (≈ 7.74 µM); MIC ([10]; 209P, 18 h): 6.25 µg/mL (≈ 15.5 µM); MIC ([11]; Proteus vulgaris, OX19, 18 h): 3.13 µg/mL (≈ 7.74 µM); MIC ([13]; W677, 18 h): 3.13 µg/mL (≈ 7.74 µM); MIC ([15]; PCI1001, 18 h): 3.13 µg/mL (≈ 7.74 µM); MIC ([21]; Providencia, SP.PV16, 18 h): 3.13 µg/mL (≈ 7.74 µM); acute toxicity (survival, symptoms) [22]: survived without showing any sympton of toxicity; MIC ([24]; AP01, 18 h): 6.25 µg/mL (≈ 15.5 µM); MIC ([25]; Bacillus subtilis, PCI219, 18 h): 6.25 µg/mL (≈ 15.5 µM); MIC ([27]; 18 h): 3.13 µg/mL (≈ 7.74 µM); MIC ([30]; Serratia, 18 h): 3.13 µg/mL (≈ 7.74 µM); MIC [34]: 25 µg/mL (≈ 61.8 µM)
CNCC1CCC(N)C(OC2C(N)CC(OC)C(N(C)C(=O)CN)C2O)O1 (stereo not shown) [Istamycin B, istamycin B]	50 (≈ 128 µM)	3.13 (≈ 8.04 µM)	50 (≈ 128 µM)	1.56 (≈ 4.01 µM)	0.78 (≈ 2 µM)	3.13 (≈ 8.04 µM)	50 (≈ 128 µM)	25 (≈ 64.2 µM)	6.25 (≈ 16 µM)	12.5 (≈ 32.1 µM)	0.78 (≈ 2 µM)	3.13 (≈ 8.04 µM)	0.78 (≈ 2 µM)	3.13 (≈ 8.04 µM)	0.78 (≈ 2 µM)	0.78 (≈ 2 µM)	3.13 (≈ 8.04 µM)	1.56 (≈ 4.01 µM)	25 (≈ 64.2 µM)	1.56 (≈ 4.01 µM)	MIC ([2]; E. coli JR66/W677, Muller-Hinton medium, 37° C., 18 hours): 1.56 µg/mL (≈ 4.01 µM); MIC ([5]; E. coli NIHJ, Muller-Hinton medium, 37° C., 18 hours): 0.78 µg/mL (≈ 2 µM); MIC ([8]; Pseudomonas aeruguinosa A3, Muller-Hinton medium, 37° C., 18 hours): 0.39 µg/mL (≈ 1 µM); MIC ([10]; S. aureus 209P, Muller-Hinton medium, 37° C., 18 hours): 0.78 µg/mL (≈ 2 µM); MIC ([11]; Proteus vulgaris OX19, Muller-Hinton medium, 37° C., 18 hours): 0.78 µg/mL (≈ 2 µM); MIC ([13]; E. coli W677, Muller-Hinton medium, 37° C., 18 hours): 0.78 µg/mL (≈ 2 µM); MIC ([15]; PCI1001, Sarcina lutea PCI 1001, Muller-Hinton medium, 37° C., 18 hours): 0.39 µg/mL (≈ 1 µM); MIC ([21]; Providencia sp. Pv16, Muller-Hinton medium, 37° C., 18 hours): 1.56 µg/mL (≈ 4.01 µM); MIC ([24]; AP01, S. aureus Ap 01, Muller-Hinton medium, 37° C., 18 hours): 1.56 µg/mL (≈ 4.01 µM); MIC ([25]; PCI219, Bacillus subtilis PCI 219, Muller-Hinton medium, 37° C., 18 hours): 0.78 µg/mL (≈ 2 µM); MIC ([27]; S. aureus Smith, Muller-Hinton medium, 37° C., 18 hours): 0.39 µg/mL (≈ 1 µM); MIC ([30]; Serratia sp. SOU, Muller-Hinton medium, 37° C., 18 hours): 25 µg/mL (≈ 64.2 µM); MIC [34]: 0.78 µg/mL (≈ 2 µM)
